Results taken from patent US20060122281A1, “Regimen for treating prostate tissue and surgical kit for use in the regimen” (AMS Research Corporation, priority 2001, published 2006).
Values joined by “and” are separate entries in the source; they are usually repeats but may differ in a detail not shown here. Equal entries are not always repeated.

Tests used:
[1] = system: Human patients exhibiting symptoms of BPH; assay: Prostate size by MRI after transurethral ethanol ablation with coadministered bicalutamide; format: in vivo; conditions: individual patient
Description: (§1) Measurements of each patient's prostate size were obtained prior to ethanol ablation by MRI. Flowmetry measurements were also taken.
(§2) Each patient was then administered ethanol ablation therapy by transurethral injection directly into prostate tissue, as summarized in Table 1. Total amount of ethanol injected ranged from about 22% to about 38% relative to the volume of the patient's prostate. The number of injection sites ranged from 3 to 11; the average number of injection sites was 5.8. Following ethanol ablation therapy, each patient was administered bicalutamide, 150 mg orally each day for sixty days, beginning on the day of treatment.
(§3) A three-month and six-month follow-up examination was done for each patient to evaluate prostate size and flowmetry results.

[2] = system: Human patients exhibiting symptoms of BPH; assay: Flowmetry after transurethral ethanol ablation with coadministered bicalutamide; format: in vivo; conditions: individual patient
Description: as §1, §2, §3

[3] = system: Human patients exhibiting symptoms of BPH; assay: International Prostate Symptom Score questionnaire; format: in vivo; conditions: individual patient
Description: as §2, with “Measurements of each patient's prostate size were obtained prior to ethanol ablation by MRI. Flowmetry measurements were also taken. Each” for “Each”, “treatment. Survey data was also acquired pre-treatment and at the three-month and six-month followups. Patients were evaluated for subjective symptom severity using an International Prostate Symptom Score questionnaire.” for “treatment.”

[4] = dosages up to 200 mg per day, long-term clinical trials; cited from earlier work
prostate weight = conditions: compared with antiandrogens presently used; cited from earlier work

SMILES | Post-treatment Evaluation (3 months) Size ([1]; 3 months after transurethral ethanol ablation plus bicalutamide 150 mg orally each day for sixty days) | Post-treatment Evaluation (6 months) Size ([1]; 6 months after transurethral ethanol ablation plus bicalutamide 150 mg orally each day for sixty days) | Post-treatment Evaluation (3 months) Qmax ([2]; maximum flow rate, 3 months after ethanol ablation plus bicalutamide 150 mg orally daily for sixty days) | Post-treatment Evaluation (6 months) Qmax ([2]; maximum flow rate, 6 months after ethanol ablation plus bicalutamide 150 mg orally daily for sixty days) | Post-treatment Evaluation (3 months) Qmed ([2]; median flow rate, 3 months after ethanol ablation plus bicalutamide 150 mg orally daily for sixty days) | Post-treatment Evaluation (6 months) Qmed ([2]; median flow rate, 6 months after ethanol ablation plus bicalutamide 150 mg orally daily for sixty days) | IPSS at 3 months ([3]; 3 months after ethanol ablation plus bicalutamide 150 mg orally daily for sixty days) | IPSS at 6 months ([3]; 6 months after ethanol ablation plus bicalutamide 150 mg orally daily for sixty days) | tolerability [4] | potency in reducing prostate weight (prostate weight)
CC(O)(CS(=O)(=O)c1ccc(F)cc1)C(=O)Nc1ccc(C#N)c(C(F)(F)F)c1 (racemic) [bicalutamide, (+−) N-[4-cyano-3-(trifluoromethyl)phenyl]-3-[(4-fluorophenyl)sulfonyl]-2-hydroxy-2-methyl propanimide] | 40 g (2×) and 36 g and 28 g and 30 g (2×) and 25 g and 78 g (2×) and 63 g and 45 g and 42 g and 54 g and 98 g and 15 g | 28 g (2×) and 30 g and 20 g (3×) and 21 g (2×) and 19 g (2×) and 32 g and 18 g (2×) and 27 g and 23 g | 18 mL/sec (2×) and 7 mL/sec and 4 mL/sec and 12 mL/sec (2×) and 11 mL/sec (2×) and 17 mL/sec (2×) and 13 mL/sec (2×) and 15 mL/sec and 10 mL/sec and 21 mL/sec | 18 mL/sec and 13 mL/sec (2×) and 19 mL/sec and 15 mL/sec (4×) and 14 mL/sec and 30 mL/sec and 17 mL/sec (2×) and 12 mL/sec and 20 mL/sec and 21 mL/sec | 11 mL/sec and 3 mL/sec (2×) and 4 mL/sec and 7 mL/sec (4×) and 5 mL/sec (3×) and 8 mL/sec and 2 mL/sec (2×) and 9 mL/sec | 11 mL/sec (3×) and 10 mL/sec (4×) and 9 mL/sec (5×) and 13 mL/sec and 8 mL/sec and 5 mL/sec | 10 (2×) and 4 (2×) and 8 (2×) and 24 and 9 and 21 and 14 and 15 and 13 and 3 and 20 and 18 | 9 (2×) and 6 and 8 (4×) and 14 and 12 (2×) and 7 and 10 and 3 and 20 and 4 | well-tolerated | 
CC1(C)C(=O)N(c2ccc(C#N)c(C(F)(F)F)c2)C(=O)N1CC#N [RU 58642] |  |  |  |  |  |  |  |  |  | more potent
